Results published in PubChem BioAssay AID248 (DTP/NCI, 2004).
Where “and” joins values, the source holds several entries; their conditions need not be identical. Identical values can stand only once. Inconclusive results and toxic doses are left out. Cut-off read from the data, not from the text of the source: active = T/C of 150% or more; inactive = T/C below 125%.

System: L1210 leukemia ip in BDF1 mice, survival T/C
Assay: NCI In Vivo Anticancer Drug Screen. Data for tumor model L1210 Leukemia (intraperitoneal) in B6D2F1 (BDF1) mice
Settings: endpoint: mean survival time, higher = longer survival
Summary of the method: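 Mice bearing the transplanted tumor received compound or vehicle. Survival of the treated group was divided by that of the vehicle-treated control group to give the ratio.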

[1] = dose: 12.5 mg/kg/injection, schedule: Q01DX009 (ip), vehicle: saline
[2] = dose: 25.0 mg/kg/injection, schedule: Q01DX009 (ip), vehicle: saline
[3] = dose: 50.0 mg/kg/injection, schedule: Q01DX009 (ip), vehicle: saline
[4] = dose: 100.0 mg/kg/injection, schedule: Q01DX001 (ip), vehicle: carboxymethylcellulose (CMC)
[5] = dose: 100.0 mg/kg/injection, schedule: Q04DX003 (ip), vehicle: Klucel (hydroxypropylcellulose) (HPC)
[6] = dose: 200.0 mg/kg/injection, schedule: Q01DX001 (ip), vehicle: carboxymethylcellulose (CMC)
[7] = dose: 200.0 mg/kg/injection, schedule: Q04DX003 (ip), vehicle: Klucel (hydroxypropylcellulose) (HPC)
[8] = dose: 400.0 mg/kg/injection, schedule: Q01DX001 (ip), vehicle: carboxymethylcellulose (CMC)
[9] = dose: 400.0 mg/kg/injection, schedule: Q04DX003 (ip), vehicle: Klucel (hydroxypropylcellulose) (HPC)
[10] = dose: 100.0 mg/kg/injection, schedule: Q01DX001 (ip), vehicle: saline with Tween-80
[11] = dose: 200.0 mg/kg/injection, schedule: Q01DX001 (ip), vehicle: saline with Tween-80
[12] = dose: 400.0 mg/kg/injection, schedule: Q01DX001 (ip), vehicle: saline with Tween-80
[13] = dose: 100.0 mg/kg/injection, schedule: Q01DX001 (ip), vehicle: saline
[14] = dose: 400.0 mg/kg/injection, schedule: Q01DX001 (ip), vehicle: saline
[15] = dose: 100.0 mg/kg/injection, schedule: Q01DX009 (ip), vehicle: saline with Tween-80

Measured: T/C

NCCCC1C(CN)C2CC1C1C3CCC(C3)C21 (stereo not given)
inactive: dose: 3.12 mg/kg/injection, schedule: Q04DX003 (ip), vehicle: saline 100 % of control | dose: 6.25 mg/kg/injection, schedule: Q04DX003 (ip), vehicle: saline 100 % of control | [1] 106 % of control | dose: 12.5 mg/kg/injection, schedule: Q04DX003 (ip), vehicle: saline 97 % of control | [2] 110 % of control | dose: 25.0 mg/kg/injection, schedule: Q04DX003 (ip), vehicle: saline 97 % of control and 103 % of control | [3] 106 % of control | dose: 50.0 mg/kg/injection, schedule: Q04DX003 (ip), vehicle: saline 105 % of control | dose: 100.0 mg/kg/injection, schedule: Q04DX003 (ip), vehicle: saline 98 % of control

Cc1ccccc1N=Nc1ccc(N(C)C)cc1
inactive: dose: 50.0 mg/kg/injection, schedule: Q01DX001 (ip), vehicle: carboxymethylcellulose (CMC) 93 % of control | [4] 107 % of control | [5] 95 % of control | [6] 86 % of control | [7] 95 % of control | [8] 98 % of control | [9] 91 % of control

Cc1nnc(N(C)C)nc1C
inactive: [10] 98 % of control | [11] 97 % of control | [12] 108 % of control

COC(=O)CCC(=O)Nc1ccc(C(=O)CBr)cc1
inactive: dose: 6.25 mg/kg/injection, schedule: Q01DX009 (ip), vehicle: Klucel (hydroxypropylcellulose) (HPC) 98 % of control | dose: 12.5 mg/kg/injection, schedule: Q01DX009 (ip), vehicle: Klucel (hydroxypropylcellulose) (HPC) 96 % of control | dose: 12.5 mg/kg/injection, schedule: Q04DX003 (ip), vehicle: Klucel (hydroxypropylcellulose) (HPC) 97 % of control | dose: 25.0 mg/kg/injection, schedule: Q01DX009 (ip), vehicle: Klucel (hydroxypropylcellulose) (HPC) 102 % of control | dose: 25.0 mg/kg/injection, schedule: Q04DX003 (ip), vehicle: Klucel (hydroxypropylcellulose) (HPC) 96 % of control | dose: 35.0 mg/kg/injection, schedule: Q01DX009 (ip), vehicle: Klucel (hydroxypropylcellulose) (HPC) 95 % of control | dose: 55.0 mg/kg/injection, schedule: Q01DX009 (ip), vehicle: Klucel (hydroxypropylcellulose) (HPC) 93 % of control

O=c1[nH]nnc2c1nc(Cc1ccc([N+](=O)[O-])cc1)n2Cc1ccccc1
inactive: [10] 102 % of control | [11] 86 % of control | [12] 100 % of control

Oc1c(Cl)cc(Cl)cc1/C=N\Nc1ccccn1
inactive: dose: 100.0 mg/kg/injection, schedule: Q01DX001 (ip), vehicle: Klucel (hydroxypropylcellulose) (HPC) 92 % of control | dose: 200.0 mg/kg/injection, schedule: Q01DX001 (ip), vehicle: Klucel (hydroxypropylcellulose) (HPC) 95 % of control | dose: 400.0 mg/kg/injection, schedule: Q01DX001 (ip), vehicle: Klucel (hydroxypropylcellulose) (HPC) 95 % of control

FC(F)(F)COP1(OCC(F)(F)F)=NP(OCC(F)(F)F)(OCC(F)(F)F)=NP(c2ccccc2)(c2ccccc2)=N1
inactive: [2] 93 % of control | [3] 96 % of control | dose: 100.0 mg/kg/injection, schedule: Q01DX009 (ip), vehicle: saline 86 % of control

CC(C)CN(CC(C)C)c1nn[nH]n1
inactive: [5] 92 % of control | [7] 98 % of control | [9] 98 % of control

N#Cc1c(CBr)ccc2ccccc12
inactive: dose: 75.0 mg/kg/injection, schedule: Q01DX001 (ip), vehicle: saline 92 % of control

Cc1cccc(C2NC(=S)N3C(c4cccc(C)c4)NC(=S)N23)c1 (stereo not given)
inactive: dose: 100.0 mg/kg/injection, schedule: Q01DX009 (ip), vehicle: gum acacia 100 % of control | dose: 100.0 mg/kg/injection, schedule: Q04DX003 (ip), vehicle: gum acacia 88 % of control | dose: 200.0 mg/kg/injection, schedule: Q01DX009 (ip), vehicle: gum acacia 100 % of control | dose: 200.0 mg/kg/injection, schedule: Q04DX003 (ip), vehicle: gum acacia 88 % of control | dose: 400.0 mg/kg/injection, schedule: Q01DX009 (ip), vehicle: gum acacia 91 % of control | dose: 400.0 mg/kg/injection, schedule: Q04DX003 (ip), vehicle: gum acacia 87 % of control

O=C1NC2(C(=O)O1)C1CC3CC(C1)CC2C3 (stereo not given)
inactive: [1] 108 % of control | [2] 107 % of control | [3] 105 % of control | dose: 100.0 mg/kg/injection, schedule: Q04DX003 (ip), vehicle: alcohol 100 % of control | dose: 200.0 mg/kg/injection, schedule: Q04DX003 (ip), vehicle: alcohol 90 % of control | dose: 400.0 mg/kg/injection, schedule: Q04DX003 (ip), vehicle: alcohol 100 % of control

CC(C)(C)N(Cc1ccccc1)C(=O)Nc1ccccc1
inactive: dose: 100.0 mg/kg/injection, schedule: Q01DX009 (ip), vehicle: Klucel (hydroxypropylcellulose) (HPC) 97 % of control | dose: 200.0 mg/kg/injection, schedule: Q01DX009 (ip), vehicle: Klucel (hydroxypropylcellulose) (HPC) 110 % of control | dose: 400.0 mg/kg/injection, schedule: Q01DX009 (ip), vehicle: Klucel (hydroxypropylcellulose) (HPC) 103 % of control

N#Cc1c(/N=C/c2ccc3c(c2)CCC3)oc(-c2ccccc2)c1-c1ccccc1
inactive: [5] 103 % of control | [7] 97 % of control | [9] 94 % of control

O=C(CCCl)OCCCl
inactive: dose: 50.0 mg/kg/injection, schedule: Q01DX009 (ip), vehicle: saline sonified 94 % of control | dose: 100.0 mg/kg/injection, schedule: Q01DX009 (ip), vehicle: saline sonified 96 % of control | dose: 200.0 mg/kg/injection, schedule: Q01DX009 (ip), vehicle: saline sonified 94 % of control

CCCCCCc1cc(CN(C2CCCCC2)C2CCCCC2)c(O)cc1O
inactive: [13] 92 % of control | [14] 87 % of control

c1csc(C2SC(c3cccs3)SC(c3cccs3)S2)c1 (stereo not given)
inactive: [4] 100 % of control | [6] 92 % of control | [8] 95 % of control

Cc1ccc(SP(=O)(Sc2ccc(C)cc2)Sc2ccc(C)cc2)cc1
inactive: dose: 100.0 mg/kg/injection, schedule: Q04DX002 (ip), vehicle: saline with Tween-80 97 % of control | dose: 200.0 mg/kg/injection, schedule: Q04DX002 (ip), vehicle: saline with Tween-80 97 % of control | dose: 400.0 mg/kg/injection, schedule: Q04DX002 (ip), vehicle: saline with Tween-80 97 % of control

O=P(CCl)(CCl)CCl
inactive: dose: 25.0 mg/kg/injection, schedule: Q01DX009 (ip), vehicle: saline with Tween-80 100 % of control | dose: 50.0 mg/kg/injection, schedule: Q01DX009 (ip), vehicle: saline with Tween-80 92 % of control | [15] 88 % of control and 92 % of control

Cc1nc2c(=O)[nH]n(C)c2nc1C
inactive: [15] 97 % of control | dose: 200.0 mg/kg/injection, schedule: Q01DX009 (ip), vehicle: saline with Tween-80 95 % of control | dose: 400.0 mg/kg/injection, schedule: Q01DX009 (ip), vehicle: saline with Tween-80 95 % of control

CCOC(=O)c1ccc(NC(=S)NC(=O)c2cccc3ccccc23)cc1
inactive: dose: 100.0 mg/kg/injection, schedule: Q04DX002 (ip), vehicle: other 91 % of control and 92 % of control | dose: 200.0 mg/kg/injection, schedule: Q04DX002 (ip), vehicle: other 97 % of control and 91 % of control | dose: 400.0 mg/kg/injection, schedule: Q04DX002 (ip), vehicle: other 102 % of control and 91 % of control

OCCOCCOCCOCCO
inactive: [13] 109 % of control | dose: 200.0 mg/kg/injection, schedule: Q01DX001 (ip), vehicle: saline 105 % of control | [14] 100 % of control
